Experimental data: US6646137B1, “Non-peptide GnRH agents” (priority 1998, dated 2003)
Where two headings read alike, the source gives them in different places.

Target: T1, human GnRH receptor (Homo sapiens, UniProt P30968)
T1 construct: The cDNA for the human GnRH receptor is cloned into the plasmid expression vector, pcDNA 3; expressed in transfected cells; host or cells: HEK 293 cells, stably transfected (pcDNA 3); membrane preparation
T1 sequence (P30968 1-328): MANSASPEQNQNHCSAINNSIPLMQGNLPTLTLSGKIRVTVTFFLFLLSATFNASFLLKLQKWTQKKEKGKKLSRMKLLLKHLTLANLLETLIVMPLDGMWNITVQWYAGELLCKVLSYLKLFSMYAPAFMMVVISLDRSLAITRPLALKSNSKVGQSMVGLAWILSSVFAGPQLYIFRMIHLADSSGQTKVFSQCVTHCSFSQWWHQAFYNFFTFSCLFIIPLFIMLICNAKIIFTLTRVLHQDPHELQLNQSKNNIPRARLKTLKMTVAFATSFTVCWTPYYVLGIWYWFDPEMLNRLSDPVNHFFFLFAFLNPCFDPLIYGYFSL
Assay: GnRH receptor competitive radioligand binding assay (125I-GnRH-A, HEK 293 cell membranes)
Details: compound at 10 μM
Source text: The cDNA for the human GnRH receptor is cloned into the plasmid expression vector, pcDNA 3 (In Vitrogen), and stably transfected in HEK 293 cells (a cell line developed by Dr. Stuart Sealfon, Mount Sinai Medical School, New York, N.Y.).
The human GnRH receptor (hGnRH) is cloned into pcDNA 3 (In Vitrogen), which provides high-level expression and a neomycin resistance marker. Lipofectamine (GIBCO BRL) is used to transfect HEK 293 cells with plasmid DNA. This method involves mixing the plasmid and reagent in serum-free medium, allowing DNA-liposome complexes to form, and overlaying cells with this solution. The HEK 293 cells are plated (seeded) on a 10-cm tissue culture dish at a density of 3×10^6 cells/dish the day before transfection. For each plate, 8 μg DNA plus 0.8 mL serum-free medium is mixed with 48 μL lipofectamine plus 0.8 mL serum-free medium, followed by incubation for 30 minutes at room temperature to allow DNA-liposome complexes to form. Serum-free medium is added to give a final volume of 6 mL/plate. The cells are rinsed twice with serum-free medium and overlayed with the DNA-liposome mixture. Five hours after transfection, an equal volume (6 mL) of medium containing 20% FBS (fetal bovine serum) is added. The cells are fed with fresh complete medium 18-24 hours after transfection. The cells are split 72 hours following transfection, at densities of 1:10 and 1:20. Stable tranformants are selected for by growth of the cells in antibiotic containing medium (G418, Sigma Chemical Company (also known as Geneticin)). Colonies are isolated and tested for receptor expression by radioligand binding and by measuring phosphoinositol turnover.
HEK 293 cells stably transfected with human GnRH receptors as described above are grown in MEM (minimal essential medium, available from Sigma Chemical Company) supplemented with 0.1% G418 (Sigma Chemical Company). Cells are homogenized in buffer A containing 50 mM Tris (pH 74.), 0.32M sucrose, 2 mM ethyleneglycol-bis(β-aminoethyl)-N,N,N′,N′-tetraacetic acid (EGTA), 1 mM phenylmethylsulfonyl fluoride (PMSF), 5 μg/mL aprotinen, 5 μg/mL Pepstatin A, and 1 μg/mL leupeptin. The homogenized cells are centrifuged at 4° C. at 20,000×g for 25 minutes, resuspended in buffer A, and recentrifuged at 4° C. at 20,000×g for an additional 25 minutes. Total membrane protein is determined with a BCA kit (Pierce, Rockford, Ill.). Membranes are stored at −70° C. at a final membrane protein concentration of 5 mg/mL.
The radioiodinated agonist analog of GnRH, [des-Gly^10, D-Ala^8]GnRH ethylamide (GnRH-A), is used as the labeled ligand. One μg of GnRH-A diluted in 0.1M acetic acid is added to an lodogen®-coated borosilicate glass tube pierce) containing 35 μL of 0.05M phosphate buffer (pH 7.4-7.6) and 1 mCi of Na[^125I]. The reaction mixture is vortexed and incubated for 1 minute at room temperature. After one minute, the mixture is vortexed again and allowed to incubate for an additional minute. Two mL of 0.5M acetic acid/1% BSA is added to the reaction tube, and the mixture is added to a C18 Sep-Pak cartridge. The cartridge is washed with subsequent washes of 5 mL H2O and 5 mL 0.5M acetic acid, and then eluted with 5×1 mL of 60% CH3CN/40% 0.5M acetic acid. The eluant is diluted with 3×volume of HPLC buffer A (0.1% TFA in H2O) and loaded onto a C18 column. The iodinated product is eluted over 20-25 minutes with a gradient of 25-100% CH3CN containing 0.1% TFA. The radioactive fractions (750 μL/fraction) are collected into clean polypropylene tubes containing 10 μL of 10% BSA. Fractions are assessed for biological activity by radioligand binding. Active fractions are utilized to screen the compounds for competitive binding assays.
HEK 293 cell membranes stably expressing hGnRHR (human GnRH receptors) are diluted to 0.5-1.0 mg/mL with assay buffer containing 50 mM HEPES (pH 7.4), 1 mM ethylenediarninetetraacetic acid (EDTA), 2.5 mM MgCl2, and 0.1% BSA. […]

[1] = average of 1st and 2nd test, read-out: Average % Remaining (percent of specific binding remaining)
[2] = crude compounds, 125I-GnRH-A, lower value = higher inhibition, read-out: % Remaining 1st Test (percent of specific binding remaining)
[3] = crude compounds, 125I-GnRH-A, lower value = higher inhibition, read-out: % Remaining 2nd Test (percent of specific binding remaining)

| remaining activity at 10 µM [1] | remaining activity at 10 µM [2] | remaining activity at 10 µM [3] | Compound |
| --- | --- | --- | --- |
| -2% | -2% | -1% | Cc1cc2c(cc1CN(CC1CCCC(CNC(=N)N)C1)C(=O)c1ccco1)C(C)(C)CCC2(C)C (stereo not drawn) [Compound 55] |
| 58% | 56% | 60% | Cc1cc2c(cc1CN(CC1CCCC(CNC(=N)N)C1)C(=O)c1ccccc1)C(C)(C)CCC2(C)C (stereo not drawn) [Compound 56] |
| 55% | 47% | 63% | CC(=O)N(Cc1cc2c(cc1C)C(C)(C)CCC2(C)C)CC1CCCC(CNC(=N)N)C1 (stereo not drawn) [Compound 57] |
| 48% | 49% | 47% | CC(=O)N(Cc1ccc(OCc2ccccc2)c(OCc2ccccc2)c1)CC1CCCC(CNC(=N)N)C1 (stereo not drawn) [Compound 63] |
| 45% | 47% | 48% | CN(C)Cc1ccc(CN(Cc2ccc(OCc3ccccc3)c(OCc3ccccc3)c2)C(=O)c2ccco2)cc1 [Compound 70] |
| 60% | 54% | 65% | CC(C)(C)c1ccc(CN(CC2CCC(CNC(=N)N)CC2)C(=O)c2ccco2)cc1 (stereo not drawn) [Compound 71] |
| 59% | 59% | 58% | CC(=O)N(Cc1cccc(Oc2ccc(Cl)cc2)c1)CC1CCC(CNC(=N)N)CC1 (stereo not drawn) [Compound 75] |
| 52% | 48% | 56% | N=C(N)NCC1CCC(CN(Cc2cccc(Oc3ccc(Cl)cc3)c2)C(=O)C2CCCC2)CC1 (stereo not drawn) [Compound 77] |
| -4% | -4% | -4% | Cc1cc2c(cc1CN(CC1CCC(CNC(=N)N)CC1)C(=O)c1ccco1)C(C)(C)CCC2(C)C (stereo not drawn) [Compound 80] |
| 48% | 52% | 44% | Cc1cc2c(cc1CN(CC1CCC(CNC(=N)N)CC1)C(=O)c1ccc(Cl)nc1)C(C)(C)CCC2(C)C (stereo not drawn) [Compound 84] |

Further lines, the compound ahead of its results:

| Compound | remaining activity at 10 µM [1] | remaining activity at 10 µM [2] | remaining activity at 10 µM [3] |
| --- | --- | --- | --- |
| Cc1cc2c(cc1CN(CC1CCCC(CNC(=N)N)C1)C(=O)c1ccc3ccccc3c1)C(C)(C)CCC2(C)C (stereo not drawn) [Compound 54] | 54% | 49% | 59% |
| Cc1cc2c(cc1CN(CC1CCCC(CNC(=N)N)C1)C(=O)c1ccc(Cl)nc1)C(C)(C)CCC2(C)C (stereo not drawn) [Compound 58] | 59% | 57% | 60% |
| N=C(N)NCC1CCCC(CN(Cc2ccc(OCc3ccccc3)c(OCc3ccccc3)c2)C(=O)C2CCCCC2)C1 (stereo not drawn) [Compound 59] | 59% | 57% | 60% |
| N=C(N)NCC1CCCC(CN(Cc2ccc(OCc3ccccc3)c(OCc3ccccc3)c2)C(=O)c2ccccc2)C1 (stereo not drawn) [Compound 62] | 52% | 49% | 55% |
| N=C(N)NCC1CCCC(CN(Cc2ccc(OCc3ccccc3)c(OCc3ccccc3)c2)C(=O)c2ccc(Cl)nc2)C1 (stereo not drawn) [Compound 64] | 49% | 46% | 51% |
| N=C(N)NCC1CCCC(CN(Cc2ccc3c(c2)OCCO3)C(=O)c2cccc3ccccc23)C1 (stereo not drawn) [Compound 65] | 55% | 50% | 59% |
| N=C(N)NCC1CCCC(CN(Cc2ccc3c(c2)OCCO3)C(=O)c2ccc3ccccc3c2)C1 (stereo not drawn) [Compound 66] | 54% | 50% | 57% |
| CN(C)Cc1ccc(CN(CC2C=CCC3C4CC=CCC4OC23)C(=O)c2ccc3ccccc3c2)cc1 (stereo not drawn) [Compound 68] | 48% | 61% | 44% |
| CN(C)Cc1ccc(CN(Cc2ccc(OCc3ccccc3)c(OCc3ccccc3)c2)C(=O)c2cccs2)cc1 [Compound 69] | 57% | 59% | 54% |
| CC(C)(C)c1ccc(CN(CC2CCC(CNC(=N)N)CC2)C(=O)c2cc3ccccc3s2)cc1 (stereo not drawn) [Compound 72] | 52% | 49% | 54% |
| CC(C)(C)c1ccc(CN(CC2CCC(CNC(=N)N)CC2)C(=O)C2CCCC2)cc1 (stereo not drawn) [Compound 73] | 58% | 59% | 57% |
| CN(C)COc1ccc(CN(CC2CCC(CNC(=N)N)CC2)C(=O)c2cc3ccccc3s2)cc1 (stereo not drawn) [Compound 74] | 50% | 51% | 48% |
| N=C(N)NCC1CCC(CN(Cc2cccc(Oc3ccc(Cl)cc3)c2)C(=O)c2ccc(Cl)nc2)CC1 (stereo not drawn) [Compound 76] | 60% | 60% | 60% |
| N=C(N)NCC1CCC(CN(CC23CC=CCC2C2CC=CCC2O3)C(=O)c2cc3ccccc3s2)CC1 (stereo not drawn) [Compound 78] | 59% | 59% | 58% |
| Cc1cc2c(cc1CN(CC1CCC(CNC(=N)N)CC1)C(=O)c1ccc([N+](=O)[O-])o1)C(C)(C)CCC2(C)C (stereo not drawn) [Compound 79] | 49% | 50% | 48% |
| Cc1cc2c(cc1CN(CC1CCC(CNC(=N)N)CC1)C(=O)COCc1ccccc1)C(C)(C)CCC2(C)C (stereo not drawn) [Compound 81] | 27% | 28% | 25% |
| COCC(=O)N(Cc1cc2c(cc1C)C(C)(C)CCC2(C)C)CC1CCC(CNC(=N)N)CC1 (stereo not drawn) [Compound 82] | 41% | 46% | 35% |
| CC(=O)N(Cc1cc2c(cc1C)C(C)(C)CCC2(C)C)CC1CCC(CNC(=N)N)CC1 (stereo not drawn) [Compound 83] | 55% | 53% | 57% |
| Cc1cc2c(cc1CN(CC1CCC(CNC(=N)N)CC1)C(=O)C1CCCC1)C(C)(C)CCC2(C)C (stereo not drawn) [Compound 85] | 51% | 52% | 50% |
| N=C(N)NCC1CCC(CN(Cc2cc3c(cc2Cl)OCO3)C(=O)c2ccco2)CC1 (stereo not drawn) [Compound 86] | 51% | 56% | 45% |
